Test results: patent US20220362276A1, “Small Molecule Inhibitors of Viral Replication” (The Trustees of Princeton University, priority 2019, published 2022)
Entries after “also recorded” stand apart in the source; their conditions may differ.

Experiments:
[1] = test system: translation of T7-tagBFP-Gluc; experiment: Translation inhibition assay (T7-tagBFP-Gluc RNA in Huh7 cells); format: cell-based; conditions: 4 days
From the text: Generation of T7-tagBFP-Gluc. To make the T7-TagBFP-GLuc construct, SP6-TagBFP-2A-FLuc was used as a template and the primers PU-O-6099 and PU-O-6100 were designed to partially anneal immediately upstream and downstream of the SP6 promoter. The unbound portions of PU-O-6099 and PU-O-6100 contained the T7 promoter sequence. […] Next, PCR amplification of the T7-TagBFP-2A backbone was completed using the Q5® High-Fidelity DNA Polymerase and PU-O-6101 and PU-O-6102 as the primers. […] The Gluc insert was then ligated to the T7-TagBFP-2A backbone using the In-Fusion® HD Cloning Kit.
Translation Inhibition Assay. Huh7 cells were seeded at 6,250 cells per well in 96-well format. The cells were then transfected with 50 ng T7-TagBFP-Gluc in vitro transcribed RNA per well. Five hours post-transfection, transfection medium was changed to medium containing isocotoin, ribavirin, cycloheximide, or roclagamide at 6 or 7 different concentrations. DMSO concentration was kept constant in all the wells at 0.125%. For each drug dose, triplicate wells were tested. On day four post-transfection, a luciferase assay was performed on supernatant media to measure Gluc expression.

Jc1(p7nsGluc2A) (HCV) = format: cell-based, hepatitis C virus; conditions: Gluc, RLU normalized to untreated
p6/Gluc[G1634R] = experiment: Dose titration against mutant replicon p6/Gluc[G1634R]
HEV = experiment: In vivo testing in HEV-infected human liver chimeric mice, viral RNA in stool and serum; conditions: 50 mg/kg daily intraperitoneally, 7 days
full-length KernowC1p6 = experiment: RT-qPCR of HEV RNA, full-length KernowC1p6 in Huh7 cells; format: cell-based, hepatitis E virus; conditions: 6.25-25 μM isocotoin, day 6
Experimental: Quantification of HEV RNA by RT-qPCR Assay. Huh7 cells were seeded 42,000 cells/well in 24-well plates. One day post-seeding, the cells were transfected with 10 ng/well KernowC1p6 or KernowC1p6-GAD in vitro transcribed RNA. The next day, the medium on the cells transfected with KernowC1p6 was changed to 0.1% DMSO medium containing 25 μM, 12.5 μM, 6.25 μM, or 0 μM isocotoin. The negative control cells transfected with KernowC1p6-GAD were maintained in medium with 0.1% DMSO. The media on the cells was changed every 2 days to fresh drug-containing or DMSO-containing media. On day 6, cells were harvested and lysed in RLT buffer using 350 μL per well. Cell lysates were homogenized by pipetting 6-7 times with a needle syringe. Total RNA was extracted using BioBasic RNA MiniPreps SuperKit (Amherst, N.Y.). RT-qPCR was performed on the samples using qScript XLT 1-Step RT-qPCR ToughMix (Quanta Bio) according to the manufacturer's instructions. In vitro transcribed KernowC1p6 RNA of known concentration was serially diluted 1:10 and included as controls to generate a standard curve to calculate absolute RNA copies/μL in the samples.

HSP90AA1 (Hsp90α1) = HSP90AA1 (Hsp90α1) (Homo sapiens, UniProt P07900); experiment: Two-dimensional thermal proteome profiling (CETSA) in crude cell extract; conditions: isocotoin 0.5-30 μM, 37-66.3 °C
Sar55/Gluc (genotype 1) = experiment: Dose titration against Sar55/Gluc replicon
HSP90AB1 (Hsp90β) = HSP90AB1 (Hsp90β) (Homo sapiens, UniProt P08238); experiment: Two-dimensional thermal proteome profiling (CETSA) in crude cell extract; conditions: isocotoin 0.5-30 μM, 37-66.3 °C
HSP90AB1 (Hsp90β), sequence (P08238 whole entry): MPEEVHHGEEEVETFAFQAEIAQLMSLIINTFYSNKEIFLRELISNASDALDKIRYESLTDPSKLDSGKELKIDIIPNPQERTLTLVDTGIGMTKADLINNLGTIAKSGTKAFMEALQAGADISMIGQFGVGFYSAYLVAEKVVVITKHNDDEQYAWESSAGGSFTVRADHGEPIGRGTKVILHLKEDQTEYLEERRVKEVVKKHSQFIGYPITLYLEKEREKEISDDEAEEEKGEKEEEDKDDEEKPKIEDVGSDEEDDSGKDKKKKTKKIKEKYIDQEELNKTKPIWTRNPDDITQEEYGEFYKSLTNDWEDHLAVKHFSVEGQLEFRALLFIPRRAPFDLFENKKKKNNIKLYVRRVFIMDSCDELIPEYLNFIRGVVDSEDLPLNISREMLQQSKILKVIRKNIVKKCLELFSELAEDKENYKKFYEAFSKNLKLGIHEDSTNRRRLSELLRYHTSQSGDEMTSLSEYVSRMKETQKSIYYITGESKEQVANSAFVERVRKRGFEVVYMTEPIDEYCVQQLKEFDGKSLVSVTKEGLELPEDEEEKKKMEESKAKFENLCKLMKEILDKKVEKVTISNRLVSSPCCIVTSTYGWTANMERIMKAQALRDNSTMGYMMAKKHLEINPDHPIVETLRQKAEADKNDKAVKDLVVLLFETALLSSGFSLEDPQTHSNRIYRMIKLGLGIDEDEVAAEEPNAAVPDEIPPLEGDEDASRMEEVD

[2] = test system: TW6196E/Gluc (genotype 4); experiment: Dose titration against TW6196E/Gluc replicon; conditions: genotype 4, poor replicative capacity
[3] = test system: SHEV-3/Gluc (genotype 3, swine-derived); experiment: Dose titration against SHEV-3/Gluc replicon; conditions: genotype 3, poor replicative capacity
HSPA14 = biological target: T1, HSPA14 (Homo sapiens, UniProt Q0VDF9); experiment: Two-dimensional thermal proteome profiling (CETSA) in crude cell extract; conditions: isocotoin 0.5-30 μM, 37-66.3 °C
T1 sequence (Q0VDF9 1-509): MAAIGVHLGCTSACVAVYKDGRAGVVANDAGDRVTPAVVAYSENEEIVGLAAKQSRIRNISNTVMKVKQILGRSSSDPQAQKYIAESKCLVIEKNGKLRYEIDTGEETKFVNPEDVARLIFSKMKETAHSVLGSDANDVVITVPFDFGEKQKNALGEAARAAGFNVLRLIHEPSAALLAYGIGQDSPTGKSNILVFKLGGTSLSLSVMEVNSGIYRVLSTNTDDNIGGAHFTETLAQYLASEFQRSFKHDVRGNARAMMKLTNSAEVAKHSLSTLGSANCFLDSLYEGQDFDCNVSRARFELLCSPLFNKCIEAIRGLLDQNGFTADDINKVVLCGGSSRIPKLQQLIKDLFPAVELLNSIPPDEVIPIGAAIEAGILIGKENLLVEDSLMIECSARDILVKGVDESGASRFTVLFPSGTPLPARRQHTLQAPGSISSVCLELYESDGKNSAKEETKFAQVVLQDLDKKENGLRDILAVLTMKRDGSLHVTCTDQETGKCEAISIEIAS

[4] = test system: p6/Gluc (HEVΔORF2/3[Gluc]) replicon, KernowC1p6 genotype 3; experiment: Dose titration against p6/Gluc replicon in Huh7 cells, Gaussia luciferase readout; format: cell-based, hepatitis E virus
Experimental: Gaussia luciferase assays.
Statistics—calculation of IC50. Half maximal inhibitory concentrations were calculated by graphing dose-titration data as nonlinear curve fits with three parameters using GraphPad Prism (v8.1.2).

[5] = test system: p6/BSR-2A-ZsGreen replicon
Huh7 cells = experiment: ATP-based cell viability assay (CellTiterGlo); conditions: Huh7 cells, day 4
Experimental: Measurement of Cytotoxicity by CellTiterGlo Assay. […] Readout was performed using a Berthold luminometer.

## COc1cc(O)cc(O)c1C(=O)c1ccccc1 [isocotoin, 4-benzoyl-5-methoxybenzene-1,3-diol]
[1]
  effect on translation / Gluc levels, in words: did not lead to a significant decrease in Gluc levels; also recorded: do not inhibit translation
Jc1(p7nsGluc2A) (HCV)
  inhibition of HCV replication, in words: dose-dependent inhibitory effects; also recorded: to a greater extent than ribavirin
p6/Gluc[G1634R]
  sensitivity of p6/Gluc[G1634R], in words: higher sensitivity to isocotoin than to ribavirin
HEV
  viral RNA levels in stool and serum pre- and post-treatment: not a clear decrease in viral levels; also recorded: did not result in a reduction in viral titers
full-length KernowC1p6
  inhibition of full-length KernowC1p6 replication, in words: dose-dependent manner; also recorded: inhibits replication
HSP90AA1 (Hsp90α1)
  thermal stabilization / soluble protein fraction of HSP90AA1: thermal stabilization; also recorded: among hits showing the greatest increase in soluble protein fraction
Sar55/Gluc (genotype 1)
  inhibition of Sar55/Gluc replication, in words: lower IC50 than ribavirin; also recorded: inhibits replication
HSP90AB1 (Hsp90β)
  thermal stabilization / soluble protein fraction of HSP90AB1: thermal stabilization; also recorded: relatively modest, but identifiable increase
[2]
  inhibition of TW6196E/Gluc replication, in words: modest inhibitory effect; also recorded: inhibits replication
[3]
  inhibition of SHEV-3/Gluc replication, in words: modest inhibitory effect; also recorded: inhibits replication
HSPA14
  thermal shift of HSPA14: did not produce a thermal shift
[4]; Hepatitis E virus, Huh-7, 96 h
  IC50: 6.1 µM
[4]; Huh7 cells, supernatant Gluc
  inhibition of p6/Gluc (HEV) replication, in words: lower IC50 than ribavirin; also recorded: dose-dependent inhibitory effects; also recorded: dose-dependent inhibition; also recorded: more efficiently than ribavirin; also recorded: inhibits replication; also recorded: to a greater extent than ribavirin
[5]; 30 μM isocotoin dose
  toxicity to cells on passaging: some toxicity
[5]; 30 μM isocotoin, first few passages
  ZsGreen levels on passaging: sharp decrease in ZsGreen levels
Huh7 cells
  doses at which cytotoxicity was displayed: ≥ 25 µM
  doses up to which no cytotoxicity was displayed: up to 12.5 μM
